Experimental data from patent US20240287054A1, “COMPOUNDS THAT BIND NON-CANONICAL G-QUADRUPLEX STRUCTURES AND METHODS OF MAKING AND USING THE SAME” (The U.S.A., as Represented by the Secretary, Department of …, priority 2021, published 2024).

Key:
[1] = test system: MYCN G4 DNA (hairpin minor groove); assay: Fluorescence displacement assay with Hoechst 33258; assay type: binding, human
Method: Fluorescence displacement assay. Fluorescence displacement assays were carried out by using two classical minor groove binders (Hoechst 33258 and netropsin). Hoechst 33258, as a fluorophore, was prepared at 5 μM concentration in the buffer (10 mM Tris, pH7.0, 100 mM KCl), and then titrated with different concentrations of unlabeled MYCN G4 oligonucleotides. For displacement, either compound MY-1 or netropsin was added into the solution resulting in a final concentration of 5 μM or 50 μM. Fluorescence signals were obtained with an excitation wavelength of 352 nm and an emission wavelength of 500 nm.

NBEB cells = assay: MTS cell survival assay; assay type: cell-based; settings: up to 45 μM
Method: (§1) To examine the effects of G4-binding compounds on NBEB cells, live-cell imaging was performed using an Incucyte interface (described below). NBEB (5K/well), cells were seeded into 96-well plates in triplicate, treated with compound MY-8 at various concentrations (0-45 μM), and cultured until control wells reached confluence. For RT-qPCR and western blotting, NBEB (300K) cells were treated with MY-8 in 6-well dish for 48 h. To examine the time-dependent decrease in MYCNOs expression, cells were treated with 22.5 μM and 45 μM MY-8 and analyzed at various times (0, 4, 24, 48, 72 and 96 h). To validate cell viability, a Trypan Blue exclusion test was performed following treatment at 48 h and 96 h post treatment and the proportion of live versus dead cells was calculated using a hemocytometer.
Cell survival. Following live cell image analysis, a 3-(4, 5-dimethylthiazol-2-yl)-5-(3-carboxymethoxyphenyl)-2-(4-sulfophenyl)-2H-tetrazolium inner salt assay was performed to examine cell survival. (MTS; inner salt assay; Promega, America). Absorbance was measured with a microplate reader (BIO-RAD, America) at 490 nm wavelength. To calculate the proportion of viable cells, MY-8 treated cells were divided by the control samples from each group.

N-Myc protein = assay: Western blot of N-Myc protein in NBEB cells; assay type: cell-based; settings: 48 h, Western blotting
Method: as §1
Protein assay. Forty-eight hours post-MY-8 treatment in 6-well plates, single copy MYCN cells were lysed directly in the plate with Radioimmunoprecipitation assay buffer (Beyotime, China), pelleted, and chilled at −80° C. […] Total protein concentrations were determined using a Bradford Assay using the Bradford reagent (Beyotime, China). […] Chemiluminescent signal was detected using Clarity™ Western ECL Substrate (Bio-Rad, USA) or Supersignal™ West Femto Maximum Sensitivity Substrate (ThermoFisher Scientific, USA) with a ChemiDoc gel imaging system (Bio-Rad, USA).

SMILES	displacement of Hoechst 33258 at 5 μM ([1]; 5 μM competitor)	displacement of Hoechst 33258 at 50 μM ([1]; 50 μM competitor)	CC50 (NBEB cells) [µM]	levels of N-Myc protein (N-Myc protein)
COc1ccc(-c2noc(-c3ccc(NCCCN4CCCC4)nn3)n2)cc1 [MY-1, 6-(3-(4-methoxyphenyl)-1,2,4-oxadiazol-5-yl)-N-(3-(pyrrolidin-1-yl)propyl)pyridazin-3-amine]	no measurable change	partial fluorescence decrease		
COc1ccc(-c2noc(-c3ccc(NCCCN4CCCCCC4)nn3)n2)cc1 [MY-8, N-(3-(azepan-1-yl)propyl)-6-(3-(4-methoxyphenyl)-1,2,4-oxadiazol-5-yl)pyridazin-3-amine]			20.5	decreased upon treatment with MY-8 in a dose-dependent fashion
